Test results taken from patent publication US8283478B2, “Process for preparation of sulfamide derivatives” (Janssen Pharmaceutica NV, priority 2005, dated 2012).

Test system: CF-1 male albino mice (MES-induced seizure)
Experiment: Maximal Electroshock Test (MES), anticonvulsant activity
Type: in vivo
Settings: for MES @ 300 mpk: (number of mice with full body tonic extension prevented)/(total number of mice tested): 300 mpk oral
Protocol: Anticonvulsant activity was determined using the MES test, run according to the procedure described in detail below. Swinyard E A, Woodhead J H, White H S, Franklin M R. Experimental selection, quantification, and evaluation of anticonvulsants. In Levy R H, et al., eds. Antiepileptic Drugs. 3rd ed. New York: Raven Press, 1989:85-102
CF-1 male albino mice (25-35 g) were fasted for 16 hours before testing. Mice were randomly selected into control and test groups, with the animals dosed with vehicle or test compound, at varying concentrations, respectively. On the study date, at 30 minutes prior to shock, the mice were orally dosed with vehicle (0.5% methylcellulose) or test compound (100-300 mg/kg). Seizures were induced by trans-corneal electric shock using a 60-Hz alternating current, 50 mA, delivered for 0.2 sec. The mice in the test groups were subjected to electrical stimulus at time intervals between 15 minutes and 4 hours following administration of test compound. […] The test was complete when the entire course of the convulsion has been observed (typically, less than 1 minute after electrical stimulation), and the mice were then immediately euthanized by carbon dioxide inhalation.
Abolition of the full body tonic extensor component of the seizure was taken as the endpoint of the test. […] The ED50 value of the test compound (calculated when appropriate) was the calculated dose required to block the hind limb tonic-extensor component of the MES-induced seizure in 50% of the rodents tested. A probit analysis was used to calculate the ED50 and 95% fiducial limits (FL).
Representative compounds of the present invention were tested according to the procedure described above, with results as listed in Table 3 below. Results are listed as (number of mice with full body tonic extension prevented)/(total number of mice tested) (@ a given time).

[1] = 100 mpk oral, 0.5 h after dosing

NS(=O)(=O)NCc1csc2ccccc12 [Compound 1, N-(benzo[b]thien-3-ylmethyl)-sulfamide]
MES @ 100 mpk: (number of mice with full body tonic extension prevented)/(total number of mice tested) [1]: 1/5 (0.5 h)
MES @ 100 mpk: (number of mice with full body tonic extension prevented)/(total number of mice tested) (100 mpk oral, 2 h after dosing): 3/5 (2 h)
MES @ 100 mpk: (number of mice with full body tonic extension prevented)/(total number of mice tested) (100 mpk oral, 4 h after dosing): 2/5 (4 h)

Cn1cc(CNS(N)(=O)=O)c2ccccc21 [Compound 7, N-[(1-methyl-1H-indol-3-yl)methyl]-sulfamide]
MES @ 100 mpk (result in words) (100 mpk oral, time not stated): inactive
MES @ 300 mpk: (number of mice with full body tonic extension prevented)/(total number of mice tested) (0.5 hr after dosing): 5/5 (0.5 hr)
MES @ 300 mpk: (number of mice with full body tonic extension prevented)/(total number of mice tested) (2 hr after dosing): 0/5 (2 hr)
MES @ 300 mpk: (number of mice with full body tonic extension prevented)/(total number of mice tested) (4 hr after dosing): 0/5 (4 hr)

Cc1oc2ccccc2c1CNS(N)(=O)=O [Compound 13, N-[(2-methyl-3-benzofuranyl)methyl]-sulfamide]
MES @ 100 mpk: (number of mice with full body tonic extension prevented)/(total number of mice tested) [1]: 4/5 (0.5 h)
MES @ 100 mpk: (number of mice with full body tonic extension prevented)/(total number of mice tested) (100 mpk oral, 2 h after dosing): 0/5 (2 h)
MES @ 100 mpk: (number of mice with full body tonic extension prevented)/(total number of mice tested) (100 mpk oral, 4 h after dosing): 0/5 (4 h)

NS(=O)(=O)NCc1csc2ccc(Br)cc12 [Compound 15, N-[(5-bromobenzo[b]thien-3-yl)methyl]-sulfamide]
MES @ 300 mpk: (number of mice with full body tonic extension prevented)/(total number of mice tested) (0.5 hr after dosing): 0/3 (0.5 hr)
MES @ 300 mpk: (number of mice with full body tonic extension prevented)/(total number of mice tested) (2 hr after dosing): 0/3 (2 hr)
MES @ 300 mpk: (number of mice with full body tonic extension prevented)/(total number of mice tested) (4 hr after dosing): 1/3 (4 hr)

NS(=O)(=O)NCc1csc2cccc(Br)c12 [Compound 17, N-[(4-bromobenzo[b]thien-3-yl)methyl]-sulfamide]
MES @ 300 mpk: (number of mice with full body tonic extension prevented)/(total number of mice tested) (0.5 hr after dosing): 0/3 (0.5 hr)
MES @ 300 mpk: (number of mice with full body tonic extension prevented)/(total number of mice tested) (2 hr after dosing): 0/3 (2 hr)
MES @ 300 mpk: (number of mice with full body tonic extension prevented)/(total number of mice tested) (4 hr after dosing): 1/3 (4 hr)

NS(=O)(=O)NCc1csc2c(F)cccc12 [Compound 18, N-[(7-fluorobenzo[b]thien-3-yl)methyl]-sulfamide]
MES @ 300 mpk: (number of mice with full body tonic extension prevented)/(total number of mice tested) (0.5 hr after dosing): 0/3 (0.5 hr)
MES @ 300 mpk: (number of mice with full body tonic extension prevented)/(total number of mice tested) (2 hr after dosing): 2/3 (2 hr)
MES @ 300 mpk: (number of mice with full body tonic extension prevented)/(total number of mice tested) (4 hr after dosing): 0/3 (4 hr)
